Results published in patent US12338256B2, “Aza-tetracyclic oxazepine compounds and uses thereof” (Genentech, Inc., priority 2022, dated 2025).

Legend:
Assay type in all cases: cell-based
[1] = system: HPAC (homozygous mutant KRAS G12D human pancreatic cell line); experiment: KRAS 3D-Cell Proliferation Assay, HPAC (Example 503); conditions: Homo sapiens, HPAC, 168 h, HPAC 3D culture, 7 days, CellTiter-Glo 3D; read-out: Prolif HPAC 3D ATP IC50
Procedure, shortened: (§1)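 IC50 values derive from 4-parameter Hill fits of normalized luminescence, where DMSO sets 0% and 1 μM staurosporine 100% inhibition. 3D cultures in RPMI-1640 with 10% fetal bovine serum were exposed to compound for 7 days before CellTiter-Glo 3D lysis.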

[2] = system: AsPC-1 (homozygous mutant KRAS G12D human pancreatic cell line); experiment: KRAS 3D-Cell Proliferation Assay, AsPC-1 (Example 503); conditions: Homo sapiens, ASPC1, 168 h, AsPC-1 3D culture, 7 days, CellTiter-Glo 3D; read-out: Prolif AsPC-1 3D ATP IC50
Experimental: Example 503: KRAS 3D-Cell Proliferation Assays. Cellular potencies of compounds are assessed by evaluating inhibition of proliferation in 3D cultures of homozygous mutant KRAS G12D human pancreatic cell lines (AsPC-1 and HPAC) as compared to a KRAS wild type human lung adenocarcinoma cell line (PC-9 and/or H1975). Cells are seeded into 384-well black round-bottom, ultra-low attachment assay plates in 50 uL cell growth medium (RPMI-1640 with 10% fetal bovine serum and 2 mM L-glutamine). After overnight incubation at 37° C. and 5% CO2, compounds solubilized in DMSO are added as dilution series to the wells in a total volume of 150 nL (0.3% DMSO final). The cells are incubated for 7 days at 37° C. and 5% CO2. Cell proliferation is quantitated by addition of 40 uL/well of CellTiter-GloÒ 3D (Promega), and the well contents are mixed 20× at high speed using liquid handling automation workstation (Bravo with 384-well head) and centrifuged at 1500 rpm for 2 minutes to eliminate bubbles. This reagent in combination with mechanical disruption releases the cellular ATP to promote activity in a luciferase-based enzyme/substrate chemiluminescent detection system. After a 30-minute incubation under ambient conditions with shaking and an additional 10 minutes without shaking, the luminescence is read on a plate reader (e.g., EnVision [PerkinElmer]). The results are normalized to percent inhibition based on the following control samples: DMSO (0% inhibition) and 1 μM staurosporine (100% inhibition). The normalized luminescence results are plotted against compound concentration, and the data are fit to a 4-parameter Hill equation to determine the IC50 values.

[3] = system: H1975 (KRAS wild type human lung adenocarcinoma cell line); experiment: KRAS 3D-Cell Proliferation Assay, H1975 (Example 503); conditions: Homo sapiens, NCI-H1975, 168 h, H1975 3D culture, 7 days, CellTiter-Glo 3D; read-out: Prolif H1975 3D ATP IC50
Procedure, shortened: as §1

SMILES | IC50 [1] [nM] | IC50 [2] [nM] | IC50 [3] [nM]
C[C@@H]1Oc2nc(-c3cc(N)c(F)c(Cl)c3CC(F)F)c(F)c3nc(OC[C@@]45CCCN4C[C@H](F)C5)nc(c23)N2C[C@H]3CC[C@H](N3)[C@@H]12 [Compound 186, 3-Chloro-4-(2,2-difluoroethyl)-2-fluoro-5-((5S,5aS,6S,9R)-1-fluoro-12-(((2R,7aS)-2-fluorotetrahydro-1H-pyrrolizin-7a(5H)-yl)methoxy)-5-methyl-5a,6,7,8,9,10-hexahydro-5H-4-oxa-3,10a,11,13,14-pentaaza-6,9-methanonaphtho[1,8-ab]heptalene-2-yl)aniline] | 2.58 | 8.9 | 1090
Cc1c(F)c(N)cc(-c2nc3c4c(nc(OCC56C[C@@H](F)CN5C[C@H](F)C6)nc4c2F)N2C[C@H]4CC[C@H](N4)[C@H]2[C@H](C)O3)c1C(F)(F)F [Compound 140, 5-((5S,5aS,6S,9R)-12-(((2R,6R)-2,6-Difluorotetrahydro-1H-pyrrolizin-7a(5H)-yl)methoxy)-1-fluoro-5-methyl-5a,6,7,8,9,10-hexahydro-5H-4-oxa-3,10a,11,13,14-pentaaza-6,9-methanonaphtho[1,8-ab]heptalen-2-yl)-2-fluoro-3-methyl-4-(trifluoromethyl)aniline] | 2.53 | 4.4 | 2060
Cc1c(F)c(N)cc(-c2nc3c4c(nc(OC[C@@]56CCCN5C[C@H](F)C6)nc4c2F)N2C[C@H]4CC[C@H](N4)[C@H]2[C@H](C(F)(F)F)O3)c1C(F)(F)F [Compound 247, 2-Fluoro-5-((5R,5aS,6S,9R)-1-fluoro-12-(((2R,7aS)-2-fluorotetrahydro-1H-pyrrolizin-7a(5H)-yl)methoxy)-5-(trifluoromethyl)-5a,6,7,8,9,10-hexahydro-5H-4-oxa-3,10a,11,13,14-pentaaza-6,9-methanonaphtho[1,8-ab]heptalene-2-yl)-3-methyl-4-(trifluoromethyl)aniline] | 1.64 | 1 | 643
Cc1nc(N)cc(-c2nc3c4c(nc(OCC5(CN6CCOCC6)CC5)nc4c2F)N2C[C@H]4CC[C@H](N4)[C@H]2[C@H](C)O3)c1C(F)(F)F [Compound 210, 4-((5S,5aS,6S,9R)-1-Fluoro-5-methyl-12-((1-(morpholinomethyl)cyclopropyl)methoxy)-5a,6,7,8,9,10-hexahydro-5H-4-oxa-3,10a,11,13,14-pentaaza-6,9-methanonaphtho[1,8-ab]heptalene-2-yl)-6-methyl-5-(trifluoromethyl)pyridin-2-amine] | 1.81 | 3.6 | 868
Cc1c(F)c(N)cc(-c2nc3c4c(nc(OC[C@H]5[C@@H](O)CCN5C)nc4c2F)N2C[C@H]4CC[C@H](N4)[C@H]2[C@H](C)O3)c1C(F)(F)F [Compound 162, (2S,3S)-2-((((5S,5aS,6S,9R)-2-(5-Amino-4-fluoro-3-methyl-2-(trifluoromethyl)phenyl)-1-fluoro-5-methyl-5a,6,7,8,9,10-hexahydro-5H-4-oxa-3,10a,11,13,14-pentaaza-6,9-methanonaphtho[1,8-ab]heptalen-12-yl)oxy)methyl)-1-methylpyrrolidin-3-ol] | 48.7 | 200 | 9450
Cc1c(F)c(N)cc(-c2nc3c4c(nc(OCC5(CN6CCOCC6)CC5)nc4c2F)N2C[C@H]4CC[C@H](N4)[C@H]2[C@H](C)O3)c1CC(F)F [Compound 156, 4-(2,2-Difluoroethyl)-2-fluoro-5-((5S,5aS,6S,9R)-1-fluoro-5-methyl-12-((1-(morpholinomethyl)cyclopropyl)methoxy)-5a,6,7,8,9,10-hexahydro-5H-4-oxa-3,10a,11,13,14-pentaaza-6,9-methanonaphtho[1,8-ab]heptalen-2-yl)-3-methylaniline] | 2.94 | 9.4 | 776
Cc1nc(N)cc(-c2nc3c4c(nc(OC[C@@]56CCCN5C[C@H](F)C6)nc4c2F)N2C[C@H]4CC[C@H](N4)[C@H]2[C@H](C)O3)c1C(F)(F)F [Compound 215, 4-((5S,5aS,6S,9R)-1-Fluoro-12-(((2R,7aS)-2-fluorotetrahydro-1H-pyrrolizin-7°(5H)-yl)methoxy)-5-methyl-5°,6,7,8,9,10-hexahydro-5H-4-oxa-3,10°,11,13,14-pentaaza-6,9-methanonaphtho[1,8-ab]heptalen-2-yl)-6-methyl-5-(trifluoromethyl)pyridin-2-amine] | 2.5 | 7.8 | 831
Cc1nc(N)cc(-c2nc3c4c(nc(OCC56CCN5CC(F)(F)C6)nc4c2F)N2C[C@H]4CC[C@H](N4)[C@H]2[C@H](C)O3)c1C(F)(F)F (stereo partly drawn) [Compound 214, 4-((5S,5aS,6S,9R)-12-((3,3-Difluoro-1-azabicyclo[3.2.0]heptan-5-yl)methoxy)-1-fluoro-5-methyl-5°,6,7,8,9,10-hexahydro-5H-4-oxa-3,10°,11,13,14-pentaaza-6,9-methanonaphtho[1,8-ab]heptalen-2-yl)-6-methyl-5-(trifluoromethyl)pyridin-2-amine] | 8.04 | 25.4 | 7030
Cc1cc(N)c(F)c(-c2nc3c4c(nc(OCC5(CN6CCOCC6)CC5)nc4c2F)N2C[C@H]4CC[C@H](N4)[C@H]2[C@H](C)O3)c1C(F)(F)F [Compound 226, 2-Fluoro-3-((5S,5aS,6S,9R)-1-fluoro-5-methyl-12-((1-(morpholinomethyl)cyclopropyl)methoxy)-5a,6,7,8,9,10-hexahydro-5H-4-oxa-3,10a,11,13,14-pentaaza-6,9-methanonaphtho[1,8-ab]heptalene-2-yl)-5-methyl-4-(trifluoromethyl)aniline] | 0.86 | 1.2 | 568
Cc1nc(N)cc(-c2nc3c4c(nc(OC[C@@]56CCCN5CC5(CC5(F)F)C6)nc4c2F)N2C[C@H]4CC[C@H](N4)[C@H]2[C@H](C(F)(F)F)O3)c1C(F)(F)F (stereo partly drawn) [Compound 254, 4-((5R,5aS,6S,9R)-12-(((7a′S)-2,2-Difluorodihydro-1′H,3′H-spiro[cyclopropane-1,2′-pyrrolizin]-7a′(5′H)-yl)methoxy)-1-fluoro-5-(trifluoromethyl)-5a,6,7,8,9,10-hexahydro-5H-4-oxa-3,10a,11,13,14-pentaaza[6,9]methanonaphtho[1,8-ab]heptalene-2-yl)-6-methyl-5-(trifluoromethyl)pyridin-2-amine] | 1.86 | 2.5 | 139
Cc1c(F)c(N)c(F)c(-c2nc3c4c(nc(OC[C@@H]5CC[C@H]6COCCN65)nc4c2F)N2C[C@H]4CC[C@H](N4)[C@H]2[C@H](C)O3)c1C(F)(F)F [Compound 96, 2,6-Difluoro-3-((5S,5aS,6S,9R)-1-fluoro-12-(((6S,8aS)-hexahydro-1H-pyrrolo[2,1-c][1,4]oxazin-6-yl)methoxy)-5-methyl-5a,6,7,8,9,10-hexahydro-5H-4-oxa-3,10a,11,13,14-pentaaza-6,9-methanonaphtho[1,8-ab]heptalen-2-yl)-5-methyl-4-(trifluoromethyl)aniline] | 3.69 | 5.8 | 982
